# Measurements taken from patent publication US9556113B2, “Combination uses of dichloroacetate and oxamate, and their prodrugs, for cancer treatment” (The South Dakota Board of Regents, priority 2014, dated 2017).
# What was measured:
# [1] = system: HPV+E6E7 Ras tumor (E6/E7/Ras MOEs cells); assay: Tumor response to cisplatin/radiation therapy (CRT), HPV positive HNSCC mouse model; assay type: in vivo, C57Bl/6 mice; settings: for tumor growth with CRT compared to DCA plus oxamate (FIG. 8A/19): prodrug 7.6 mg/mouse i.p. weekdays, control DCA 6 mg/mouse + oxamate 2 (2.2) mg/mouse, all with CRT
# Description: FIG. 7 illustrates the effects of DCA plus oxamate on tumor growth (A) or on survival (B) with HPV+ model of HNSCC in wild-type C57Bl/6 mice. All mice received 3 rounds of cisplatin (0.132 mg/mouse) plus radiation (8 Gy/mouse) treatment (Tx) at weekly intervals starting […] after tumor initiation. Mice receiving DCA (6 mg/mouse) plus oxamate (15 mg/mouse) were treated every weekday, starting with the first chemoradiation treatment by i.p. injection.
# FIG. 8 illustrates a comparison of prodrugs to DCA plus oxamate on tumor growth (A) or on survival (B) with HPV+ model of HNSCC in wild-type C57Bl/6 mice. All mice received 3 rounds of CRT [cisplatin (0.132 mg/mouse) plus radiation (8 Gy/mouse) treatment (Tx) at weekly intervals starting 11 days after tumor initiation]. Mice receiving DCA (6 mg/mouse) plus oxamate (2.2 mg/mouse) were treated every weekday starting with the first chemoradiation treatment by i.p. injection. Mice treated with AT-N4-001 or AT-N4-002 prodrugs (7.6 mg/mouse) were treated on the same schedule as mice treated with DCA+oxamate.
# FIG. 18. The effects of DCA, oxamate, DCA plus oxamate on the responses of HPV+E6E7 Ras tumor to CRT. One million E6/E7/Ras MOEs cells were injected subcutaneously into the rear leg of wild-type C57Bl/6 mice. After 11 days, a treatment with DCA (6 mg/mouse) and oxamate (15 mg/mouse) were injected daily by i.p. on weekdays for the remainder of the experiment. All mice received three rounds of treatment with CRT (0.132 mg/mouse cisplatin and 8 Gy radiation, weekly starting at day 11). Tumor volume is mm^3.
# FIG. 19 depicts the effects of DCA plus oxamate vs the effects of prodrug 1 or prodrug 2 on the responses of HPV+E6E7 Ras tumor to CRT. Tumors were initiated by injecting 0.5×10^6 E6/E7/Ras MOEs cells. After 11 days, a treatment with DCA (6 mg/mouse) plus oxamate (2 mg/mouse), or prodrug 1 (7.6 mg/mouse), or prodrug 2 (7.6 mg/mouse) was initiated daily by i.p. on weekdays. The doses of DCA and oxamate were equal molar equivalents as would be released from the prodrugs. All mice received three rounds of treatment with CRT (0.132 mg/mouse cisplatin and 8 Gy radiation, weekly starting at day 11). Tumor volume is in mm^3.
# The effects of various treatments on tumor responses were carried out by examining whether the treatment could improve tumor's response to CRT with a HPV positive HNSCCs mouse model. CRT is a standard treatment for HPV-positive HNSCC in the clinic (46). […] Applicants also used this model to investigate the effects of lactate on CRT-induced immune-mediated cancer clearance (46) and DCA's effect on the tumor's response to CRT (unpublished data). The literature reported dosages of DCA and oxamate were used (6,23,52,53)(41).
# To study the effects of the prodrugs on tumor growth in vivo, C57Bl/6 immune-competent mice implanted with E6/E7/Ras MOEs cells were used as described previously (46). All experiments were performed in accordance with institutional and national guidelines and regulations with the protocol approved by the Animal Care and Use Committee at Sanford Research. Briefly, 1×10^6 tumor HPV+HNSCC cells were injected into the right subcutaneous flank of syngeneic male C57Bl/6 mice. Eleven days after tumor initiation, treatment was initiated daily on weekdays by i.p. injection of vehicle, DCA, Oxamate, DCA+oxamate, prodrug 1, or prodrug 2. All mice received three rounds of treatment with cisplatin/radiation therapy (CRT: 0.132 mg/mouse cisplatin and 8 Gy radiation, weekly starting at day 11). Tumor dimensions were measured weekly to monitor growth. Mice with tumors reaching a volume of 3000 mm^3 or becoming substantially emaciated were euthanized.
# To study the effects of the new prodrugs on tumor growth in vivo, C57Bl/6 immune-competent mice were used. Tumors were established on the right flank of the leg. After 11 days, treatment was initiated with daily i.p. injection of vehicle, AT-N4-001, or AT-N4-002. […]
# HPV+ HNSCC tumor [2] = assay: IHC of tumors for cleaved caspase 3 and Ki67; assay type: in vivo, wild-type mice; settings: one week treatment plus one round of CRT
# Description: FIG. 10 illustrates Effect of AT-N4-002 on tumor cell apoptosis and cell proliferation. (A) Sections of tumors from mice treated either with chemo-radiation (Tx) or chemoradiation plus AT-N4-002 were subjected to IHC to detect cleaved caspase 3 or Ki67. (B) Cleaved caspase 3 positive cells were counted in 5 random fields from the IHC experiment shown in A. (C) The percent of Ki67 positive cells from the IHC experiment shown in A.
# To examine potential direct, immune-independent effects of the prodrug on tumors, tumor bearing wild-type mice were treated for one week with AT-N4-002 plus one round of chemoradiation. Tumors were then harvested and processed for immunohistochemical detection of Ki67, a proliferation marker, and cleaved caspase 3, a marker for apoptosis (FIG. 10). […] Such direct effects on the tumor cells could be responsible for the reduced tumor growth observed in immune deficient mice.
# HPV+ HNSCC tumor [3] = assay: Intratumoral pH and tumor lactate; assay type: in vivo, wild-type mice
# Description: FIG. 11 illustrates the effect of prodrug on tumor pH and tumor lactate. (A) Intratumoral pH in living animals was determined by inserting a needle pH electrode directly into the tumor. The pH was read at 3 different depths in each tumor. Each marker on the graph represents a separate pH measurement. The bar represents the mean and the error bars the standard deviation. (B) Frozen sections of excised tumors were used to estimate lactate levels in the tumor microenvironment. This was performed using the In Vivo Xtreme imager to visualize lactate-dependent luciferase activity as described by Broggini-Tenzer et al. [Metabolism of tumors under treatment: mapping of metabolites with quantitative bioluminescence. Radiother Oncol 99, 398-403 (2011)]. (C) Plot of lactate measurements in B. Each marker represents one tumor. The bar represents the mean and the error bars the standard deviation.
# The ability of DCA and oxamate to enhance survival in wild-type mice following chemoradiation correlates closely with their ability to reduce tumor lactate. We therefore examined the ability of the prodrug AT-N4-002 to reduce tumor lactate. Wild-type tumor bearing mice were treated with either CRT or CRT followed by one week of daily ip injection of AT-N4-002. Lactate is exported from cells together with a proton and therefore promotes acidification of the tumor microenvironment. Intratumoral pH was measured with a needle pH electrode. […] (FIG. 11B,C).
# [4] = CRT followed by one week of daily ip injection
Compound,tumor growth with CRT compared to DCA plus oxamate (FIG. 8A/19) [1],tumor growth with CRT compared to DCA plus oxamate (FIG. 8A/19) ([1]; listed as prodrug 1),long-term survival (FIG. 8B) ([1]; CRT + 7.6 mg/mouse i.p.),tumor growth with CRT compared to DCA plus oxamate (FIG. 8A/19) ([1]; listed as Prodrug 2),Ki67 positive cells in tumor (FIG. 10C) (HPV+ HNSCC tumor [2]),cleaved caspase 3 positive cells in tumor compared to CRT alone (FIG. 10B) (HPV+ HNSCC tumor [2]),intratumoral pH compared to CRT group (FIG. 11A) (HPV+ HNSCC tumor [3]; [4]),"tumor lactate (FIG. 11B,C) (HPV+ HNSCC tumor [3]; [4])","lactate production and acidity in tumor tissues versus DCA plus oxamate (HPV+ HNSCC tumor [3]; separate in vivo experiment, data not shown)"
"NC(=O)C(=O)OC(COC(=O)C(Cl)Cl)COC(=O)C(Cl)Cl [AT-N4-001, 2-(2-Amino-2-oxoacetoxy)propane-1,3-diyl bis(2,2-dichloroacetate)]","initially reduced tumor growth compared to CRT+DCA+oxamate control, but this was not maintained over longer times",about equally potent as that of the combination,–,–,–,–,–,–,–
"NC(=O)C(=O)OCC(COC(=O)C(Cl)Cl)OC(=O)C(Cl)Cl (stereo not shown) [AT-N4-002, 3-(2-amino-2-oxoacetoxy)propane-1,2-diyl bis(2,2-dichloroacetate)]",reduced average tumor growth compared to the control during the entire experiment,–,~25%,more effective than DCA plus oxamate during the entire experiment,appeared to decrease,significantly increased,significantly higher,decreased tumor lactate,more effective in reducing lactate production and acidity in tumor tissues than DCA plus oxamate
